Our source for the GI50 and TGI values is PubChem BioAssay (NCI).

Common to all, as to experiment: inhibition of tumour cell growth, NCI panel, 48 h
In assay [1] the test system is CCRF-CEM leukemia.
For assay [2], the system named is KM12 colon.
In assay [3] the test system is MCF7 breast.
Assay [4] relates to MDA-MB-231 breast.
For assay [5], the system named is MDA-MB-435.
Assay [6] has as its system OVCAR-3 ovarian.
Assay [7] concerns SK-OV-3 ovarian.
The test system of assay [8] is T-47D breast.
The test system of assay [9] is SF-539 CNS.
The subject of assay [10] is SK-MEL-2 melanoma.

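These data come from cells grown in 96-well plates and exposed to compound for 48 hours at five concentrations. GI50 is the concentration that inhibits growth by half. Definition used: TGI = concentration required for complete inhibition of growth.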

Turning to `CO/N=C(\C)COc1ccc2c(=O)c(-c3ccccc3)coc2c1`, the GI50 is greater than 100 µM in [1]; greater than 100 µM in assay [2]; 39 µM in [3]; 20.5 µM in [4]; greater than 100 µM in assay [5]; 30.2 µM in assay [6]. Also, the GI50 in [7] was 21.9 µM; in assay [8], 17.3 µM. The TGI in assay [1] was greater than 100 µM; in assay [2] it was greater than 100 µM; in [3], greater than 100 µM; in assay [4] it was 40.9 µM; in assay [5], greater than 100 µM; in assay [6] it was 74.2 µM. For the same compound, the TGI in assay [7] was determined as 80 µM; in [8], 48.6 µM.
For `CCOC(=O)C(O)(NC(=O)c1ccccc1F)C(F)(F)F` (stereo not drawn), the TGI in assay [1], in assay [2], in assay [3], in [4], in [5] and in [6] was greater than 100 µM each time. For the same compound, the TGI in assay [9], in [10], in assay [7] and in [8] was greater than 100 µM each time.
`N#Cc1c(N)sc2c1-c1ccccc1OC2`: the TGI in assay [1] was 36 µM; in assay [2], greater than 100 µM; in [3], greater than 100 µM; in assay [4] it was greater than 100 µM; in assay [5], greater than 100 µM; in [6], 61.7 µM. The TGI in assay [9], in [10] and in assay [7] was greater than 100 µM in each case.
With `COc1cc(C2C(C(=O)O)=C(COC(C)=O)Oc3cc4c(cc32)OCO4)cc(OC)c1OC` (stereo not drawn), the TGI in assay [1], in assay [6], in [10] and in assay [7] was greater than 100 µM each time.
With `CCc1ccc2nc(-c3ccc(O)cc3)sc2c1`, the TGI in [2] was determined as 32.7 µM; in assay [3] it was 46.4 µM; in assay [4], 29.9 µM; in assay [5], 39.5 µM; in assay [6] it was 28.1 µM; in assay [9], 27.8 µM. Moreover, the TGI worked out at 31.9 µM in [10] and 32.3 µM in assay [7].
For the compound `CN(C)c1ccc(C(Cc2ccc3ccccc3n2)Cc2ccc3ccccc3n2)cc1`, the values for the GI50 in assay [4], in assay [9] and in assay [8] were 5.41 µM, 4.74 µM and 1.71 µM, respectively. Further, the TGI in assay [4], in assay [9] and in assay [8] was greater than 100 µM throughout.
